Test results as given in patent US8530493B2, “Indolopyridines as Eg5 kinesin modulators” (4SC AG, priority 2006, dated 2013).

Assays:
[1] = system: RKO p27 uninduced (proliferating) colon adenocarcinoma cells; experiment: Alamar Blue cell viability assay, RKO p27 uninduced (proliferating); format: cell-based; conditions: Homo sapiens, RKOp27, Table B1, anti-proliferative/cytotoxic activity, 72 hours, read-out: −log EC50 RKO p27 uninduced (proliferating) (converted)
Description: The anti-proliferative/cytotoxic activity of the compounds described herein can be tested on subclones of RKO human colon adenocarcinoma cells (Schmidt et al., Oncogene 19, 2423-2429; 2000) using the Alamar Blue cell viability assay (described in O'Brien et al. Eur J Biochem 267, 5421-5426, 2000). The compounds are dissolved as 10 mM solutions in DMSO and subsequently diluted in semi-logarithmic steps. DMSO dilutions are further diluted 1:100 into Dulbecco's modified Eagle's medium (DMEM) containing 10% fetal calf serum to a final concentration twice as much as the final concentration in the test. RKO subclones are seeded into 96 well flat bottom plates at a density of 4000 cells per well in a volume of 50 μl per well. 24 hours after seeding the 50 μl each of the compound dilutions in DMEM medium are added into each well of the 96 well plate. Each compound dilution is tested as triplicates. Wells containing untreated control cells are filled with 50 μl DMEM medium containing 1% DMSO. The cells are then incubated with the substances for 72 hours at 37° C. in a humidified atmosphere containing 5% carbon dioxide. To determine the viability of the cells, 10 μl of an Alamar Blue solution (Biosource) are added and the fluorescence is measured at an extinction of 544 nm and an emission of 590 nm. For the calculation of the cell viability the emission value from untreated cells is set as 100% viability and the emission rates of treated cells are set in relation to the values of untreated cells. Viabilities are expressed as % values. The Graphpad Prism program is used for the calculation of EC50 values for anti-proliferative/cytotoxic activity out of the obtained dose-response curves.
(§1) To determine the cell cycle specific mode of action, subclones of RKO colon adenocarcinoma cells (RKOp21 or RKOp27 as described by Schmidt et al. in Oncogene 19, 2423-2429; 2000) are seeded into 96 well flat bottom plates at a density of 16000 cells per well in a volume of 50 μl per well in DMEM growth medium with 10% FCS containing 10 μM Ponasterone A. 24 hours after seeding the 50 μl each of the compound dilutions in DMEM medium are added into each well of the 96-well plate. Each compound dilution is tested as triplicates. Wells containing untreated control cells are filled with 50 μl DMEM medium containing 1% DMSO. The cells are then incubated with the substances for 72 hours at 37° C. in a humidified atmosphere containing 5% carbon dioxide. To determine the viability of the cells, 10 μl of an Alamar Blue solution (Biosource) are added and the fluorescence is measured at an extinction of 544 nm and an emission of 590 nm. For the calculation of the cell viability the emission value from untreated cells is set as 100% viability and the emission rates of treated cells are set in relation to the values of untreated cells. Viabilities are expressed as % values. The Graphpad Prism program (GraphPad Software, Inc) is used for the calculation of EC50 values out of the obtained dose-response curves. Viability is compared of proliferating cells grown in the absence of the inducer Ponasterone A, versus viability of cells arrested by the expression of ectopic p27Kip1 induced by Ponasterone A.
(§2) Representative values for anti-proliferation/cytotoxicity [measured as −log EC50 (mol/l)] determined in the aforementioned assays follow from the following tables B1, B2 and B3, in which the numbers of the compounds correspond to the numbers of the examples.

[2] = system: RKO p27 induced (arrested) colon adenocarcinoma cells; experiment: Alamar Blue cell viability assay, RKO p27 induced by Ponasterone A (arrested); format: cell-based; conditions: Homo sapiens, RKOp27, Table B1, cells arrested by Ponasterone A-induced p27Kip1, 72 hours, read-out: −log EC50 RKO p27 induced (arrested) (converted)
Description: as §1, §2

## CC(C)N(C)CCN1C(=O)N2[C@H](c3cccc(O)c3)c3[nH]c4ccc(Cl)cc4c3C[C@@]2(C)C1=O (racemic) [Example 39, (3aSR,10RS)-6-Chloro-10-(3-hydroxy-phenyl)-2-[2-(isopropyl-methyl-amino)-ethyl]-3a-methyl-3a,4,9,10-tetrahydro-2,9,10a-triaza-cyclopenta[b]fluorene-1,3-dione]
[1]
  EC50: ≤ 39.8 nM
[2]
  EC50: ≥ 3160 nM

## COc1ccc2[nH]c3c(c2c1)C[C@@]1(C)C(=O)N(CCN2CCC2)C(=O)N1[C@@H]3c1cccc(O)c1 (racemic) [Example 33, (3aSR,10RS)-2-(2-Azetidin-1-yl-ethyl)-10-(3-hydroxy-phenyl)-6-methoxy-3a-methyl-3a,4,9,10-tetrahydro-2,9,10a-triaza-cyclopenta[b]fluorene-1,3-dione]
[1]
  EC50: ≤ 39.8 nM
[2]
  EC50: ≥ 3160 nM

## COc1ccc2[nH]c3c(c2c1)C[C@@]1(C)C(=O)N(CCNC2CC2)C(=O)N1[C@@H]3c1cccc(O)c1 (racemic) [Example 53, (3aSR,10RS)-2-(2-Cyclopropylamino-ethyl)-10-(3-hydroxy-phenyl)-6-methoxy-3a-methyl-3a,4,9,10-tetrahydro-2,9,10a-triaza-cyclopenta[b]fluorene-1,3-dione]
[1]
  EC50: ≤ 39.8 nM
[2]
  EC50: ≥ 3160 nM

## CCN(C)CCN1C(=O)N2[C@H](c3cccc(O)c3)c3[nH]c4ccc(OC)cc4c3C[C@@]2(C)C1=O (racemic) [Example 52, (3aSR,10RS)-2-[2-(Ethyl-methyl-amino)-ethyl]-10-(3-hydroxy-phenyl)-6-methoxy-3a-methyl-3a,4,9,10-tetrahydro-2,9,10a-triaza-cyclopenta[b]fluorene-1,3-dione]
[1]
  EC50: ≤ 39.8 nM
[2]
  EC50: ≥ 3160 nM

## CCN(C)CCN1C(=O)N2[C@H](c3cccc(O)c3)c3[nH]c4ccc(Cl)cc4c3C[C@@]2(C)C1=O (racemic) [Example 40, (3aSR,10RS)-6-Chloro-2-[2-(ethyl-methyl-amino)-ethyl]-10-(3-hydroxy-phenyl)-3a-methyl-3a,4,9,10-tetrahydro-2,9,10a-triaza-cyclopenta[b]fluorene-1,3-dione]
[1]
  EC50: ≤ 39.8 nM
[2]
  EC50: ≥ 3160 nM

## CCOc1ccc2[nH]c3c(c2c1)C[C@@]1(C)C(=O)N(C)C(=O)N1[C@@H]3c1cccc(O)c1 (racemic) [Example 1, (3aSR,10RS)-6-Ethoxy-10-(3-hydroxy-phenyl)-2,3a-dimethyl-3a,4,9,10-tetrahydro-2,9,10a-triaza-cyclopenta[b]fluorene-1,3-dione]
[1]
  EC50: 39.8 to 251 nM
[2]
  EC50: ≥ 3160 nM

## COc1ccc2[nH]c3c(c2c1)C[C@@]1(C)C(=O)N(CCNC2CCC2)C(=O)N1[C@@H]3c1cccc(O)c1 (racemic) [Example 50, (3aSR,10RS)-2-(2-Cyclobutylamino-ethyl)-10-(3-hydroxy-phenyl)-6-methoxy-3a-methyl-3a,4,9,10-tetrahydro-2,9,10a-triaza-cyclopenta[b]fluorene-1,3-dione]
[1]
  EC50: ≤ 39.8 nM
[2]
  EC50: ≥ 3160 nM

## CN(C)CCCN1C(=O)N2[C@H](c3cccc(O)c3)c3[nH]c4ccc(Cl)cc4c3C[C@@]2(C)C1=O (racemic) [Example 16, (3aSR,10RS)-6-Chloro-2-(3-dimethylamino-propyl)-10-(3-hydroxy-phenyl)-3a-methyl-3a,4,9,10-tetrahydro-2,9,10a-triaza-cyclopenta[b]fluorene-1,3-dione]
[1]
  EC50: ≤ 39.8 nM
[2]
  EC50: ≥ 3160 nM

## COc1ccc2[nH]c3c(c2c1)C[C@@]1(C)C(=O)N(CCCn2ccnc2)C(=O)N1[C@@H]3c1cccc(O)c1 (racemic) [Example 20, (3aSR,10RS)-10-(3-Hydroxy-phenyl)-2-(3-imidazol-1-yl-propyl)-6-methoxy-3a-methyl-3a,4,9,10-tetrahydro-2,9,10a-triaza-cyclopenta[b]fluorene-1,3-dione]
[1]
  EC50: ≤ 39.8 nM
[2]
  EC50: ≥ 3160 nM

## CCOc1ccc2[nH]c3c(c2c1)C[C@@]1(C)C(=O)N(CCNC)C(=O)N1[C@@H]3c1cccc(O)c1 (racemic) [Example 41, (3aSR,10RS)-6-Ethoxy-10-(3-hydroxy-phenyl)-3a-methyl-2-(2-methylamino-ethyl)-3a,4,9,10-tetrahydro-2,9,10a-triaza-cyclopenta[b]fluorene-1,3-dione]
[1]
  EC50: ≤ 39.8 nM
[2]
  EC50: ≥ 3160 nM

## COc1ccc2[nH]c3c(c2c1)C[C@@]1(C)C(=O)N(CCNCC2CC2)C(=O)N1[C@@H]3c1cccc(O)c1 (racemic) [Example 48, (3aSR,10RS)-2-[2-(Cyclopropylmethyl-amino)-ethyl]-10-(3-hydroxy-phenyl)-6-methoxy-3a-methyl-3a,4,9,10-tetrahydro-2,9,10a-triaza-cyclopenta[b]fluorene-1,3-dione]
[1]
  EC50: ≤ 39.8 nM
[2]
  EC50: ≥ 3160 nM

## CC[C@@]12Cc3c([nH]c4ccc(OC)cc34)[C@@H](c3cccc(O)c3)N1C(=O)N(CCCN(C)C)C2=O (racemic) [Example 19, (3aSR,10RS)-2-(3-Dimethylamino-propyl)-3a-ethyl-10-(3-hydroxy-phenyl)-6-methoxy-3a,4,9,10-tetrahydro-2,9,10a-triaza-cyclopenta[b]fluorene-1,3-dione]
[1]
  EC50: ≤ 39.8 nM
[2]
  EC50: ≥ 3160 nM

## COc1ccc2[nH]c3c(c2c1)C[C@@]1(C)C(=O)N(CCN2CCN(C(C)=O)CC2)C(=O)N1[C@@H]3c1cccc(O)c1 (racemic) [Example 32, (3aSR,10RS)-2-[2-(4-Acetyl-piperazin-1-yl)-ethyl]-10-(3-hydroxy-phenyl)-6-methoxy-3a-methyl-3a,4,9,10-tetrahydro-2,9,10a-triaza-cyclopenta[b]fluorene-1,3-dione]
[1]
  EC50: 39.8 to 251 nM
[2]
  EC50: ≥ 3160 nM

## CNCCN1C(=O)N2[C@H](c3cccc(O)c3)c3[nH]c4ccc(OC)cc4c3C[C@@]2(C)C1=O (racemic) [Example 27, (3aSR,10RS)-10-(3-Hydroxy-phenyl)-6-methoxy-3a-methyl-2-(2-methylamino-ethyl)-3a,4,9,10-tetrahydro-2,9,10a-triaza-cyclopenta[b]fluorene-1,3-dione]
[1]
  EC50: ≤ 39.8 nM
[2]
  EC50: ≥ 3160 nM

## CCOc1ccc2[nH]c3c(c2c1)C[C@@]1(C)C(=O)N(CCN2CCC2)C(=O)N1[C@@H]3c1cccc(O)c1 (racemic) [Example 46, (3aSR,10RS)-2-(2-Azetidin-1-yl-ethyl)-6-ethoxy-10-(3-hydroxy-phenyl)-3a-methyl-3a,4,9,10-tetrahydro-2,9,10a-triaza-cyclopenta[b]fluorene-1,3-dione]
[1]
  EC50: ≤ 39.8 nM
[2]
  EC50: ≥ 3160 nM

## COc1ccc2[nH]c3c(c2c1)C[C@@]1(C)C(=O)N(CCN2CCC(F)(F)C2)C(=O)N1[C@@H]3c1cccc(O)c1 (racemic) [Example 34, (3aSR,10RS)-2-[2-(3,3-Difluoro-pyrrolidin-1-yl)-ethyl]-10-(3-hydroxy-phenyl)-6-methoxy-3a-methyl-3a,4,9,10-tetrahydro-2,9,10a-triaza-cyclopenta[b]fluorene-1,3-dione]
[1]
  EC50: 39.8 to 251 nM
[2]
  EC50: ≥ 3160 nM

## COc1ccc2[nH]c3c(c2c1)C[C@@]1(C)C(=O)N(CCN(C)C)C(=O)N1[C@@H]3c1cccc(O)c1 (racemic) [Example 7, (3aSR,10RS)-2-(2-Dimethylamino-ethyl)-10-(3-hydroxy-phenyl)-6-methoxy-3a-methyl-3a,4,9,10-tetrahydro-2,9,10a-triaza-cyclopenta[b]fluorene-1,3-dione]
[1]
  EC50: ≤ 39.8 nM
[2]
  EC50: ≥ 3160 nM
